According to US9623063B2, “Extracts from Ajuga reptans cell lines, their preparation and use” (I.R.B. ISTITUTO DI RICERCHE BIOTECNOLOGICHE S.r.l., priority 2005, dated 2017):

What was measured:
A549 cells (ATCC-CCL185) = assay: BSO-induced oxidative stress, ROS by DCF fluorimetry in A549 cells; assay type: cell-based, human; conditions: with BSO, control without BSO = 100
Protocol: 10×10^5 A549 cells (ATCC-CCL185) have been seeded into wells with 3 ml of DMEM/F12K HAM medium (Sigma-Aldrich) with 10% FCS and incubated at 37° C. in a 5% CO2, water vapour saturated atmosphere. After 24 hours the culture medium is replaced by medium supplemented with BSO, which is left in contact with the cells for 20 hours. The medium is once again replaced with medium containing BSO in the presence or absence of the test compound. After 4 hours, quantitative measurement of the ROSs (hydroxyl radicals) is performed by washing the cells with phosphate buffer and then incubating them with 30 μM DCF-DA in buffer solution. At the end of a 15 minute incubation, excess DCF-DA is removed from the cells by washing, prior to measuring the fluorescence emitted.
Antioxidant activity measurements are performed using a (Hitachi F3010) spectrophotometer with excitation at 488 nm and measuring emission at 525 nm, and values are expressed in pmoles, by extrapolation from the calibration curve constructed using known quantities of DCF, and in relation to total cellular protein. Values are thus expressed in % ages with respect to the ROS content of the cells not subjected to treatment with BSO (control) to which are assigned a value of 100.
The Extracts 1 and 2, Teupolioside and Ascorbic Acid were solubilized in phosphate buffer 10 mM at pH 7.4, whereas trolox was solubilized in 0.1% of dimethylsulphoxide and culture medium.

[1] = Hydroxyl radical scavenger activity (Fenton reaction, luminol chemiluminescence); assay type: biochemical; conditions: means of 6 independent assays
Source text: (§1) Ajuga reptans Extracts 1 and 2, prepared as described in examples 1 and 2, and isoteupolioside have been used to assess in vitro antioxidant action with specific oxygen radical generating systems such as the superoxide anion (O2^−), the hydroxyl radical (HO^−), the peroxynitrite radical (ONOO^−) and the inhibition of lipid peroxidation. The superoxide anion has been measured by a chemiluminescent assay based on the hypoxanthine (HPX)/xanthine oxidase (XOD) reaction using the Lumimax Superoxide Anion Detection Kit (Stratagene, La Jolla, Calif., USA) and following the manufacturer's instructions. Hydroxyl radical scavenger activity has been measured by means of the Fenton reaction for the production of hydroxyl radicals and chemiluminescent dosage (using a Victor^3 chemiluminometer, Wallac, Finland) with luminol. Peroxynitrite ions have been determined by means of dosage with a spontaneous generator of peroxynitrites (3-morpholinosidnonimine hydrochloride; SIN-1) and a stable reagent for the nitroxyl ions (2-(4-carboxyphenyl)-4,4,5,5-tetramethylimidazoline-1-oxyl-3-oxide potassium salt PTIO spin trap) then dosed by means of electron spin resonance (ESR) using a Nippon Denshi JES-FR30. Lipid peroxidation has been generated using Fe^2+ induced-oxygen reactive species, and detected using thiobarbituric acid in accordance with Buege, J A & Aust, S D: Microsomal lipid peroxidation (Methods Enzymol.
The Extract 1 and the Extract 2 set forth in Table 4 are derived from Ajuga reptans cell cultures comprising the phenylpropanoids at 90% and 54%, respectively. The results are expressed as the concentration inhibiting 50% of activity (IC50), means of 6 independent assays.

[2] = Superoxide anion chemiluminescent assay (hypoxanthine/xanthine oxidase, Lumimax kit); assay type: biochemical; conditions: means of 6 independent assays
Source text: as §1, with “The” for “Ajuga reptans Extracts 1 and 2, prepared as described in examples 1 and 2, and isoteupolioside have been used to assess in vitro antioxidant action with specific oxygen radical generating systems such as the superoxide anion (O2^−), the hydroxyl radical (HO^−), the peroxynitrite radical (ONOO^−) and the inhibition of lipid peroxidation. The”
(§2) The results are expressed as the concentration inhibiting 50% of activity (IC50), means of 6 independent assays.

[3] = Peroxynitrite scavenging (SIN-1, PTIO spin trap, ESR); assay type: biochemical; conditions: means of 6 independent assays
Source text: as §1, with “The” for “Ajuga reptans Extracts 1 and 2, prepared as described in examples 1 and 2, and isoteupolioside have been used to assess in vitro antioxidant action with specific oxygen radical generating systems such as the superoxide anion (O2^−), the hydroxyl radical (HO^−), the peroxynitrite radical (ONOO^−) and the inhibition of lipid peroxidation. The”
as §2

tyrosinase [4] = assay: Tyrosinase inhibition, conversion of L-DOPA to DOPAquinone; assay type: biochemical; conditions: 100 μg/ml
Source text: (§3) The enzyme tyrosinase catalyses the reactions leading to melanin biosynthesis from tyrosine. […] Substances inhibiting tyrosinase activity produce a clearing/bleaching effect on the skin, since they block melanin synthesis. The method used to determine the inhibition of tyrosinase activity in the oxidation reaction of L-tyrosine to L-DOPA is that described in Kim et al. […] Biol. Pharm. […] The method applied for determination of the inhibition of tyrosinase activity in the conversion of L-DOPA to DOPAquinone is that described in Masamoto et al. (Mushroom tyrosinase inhibitory activity of esculetin isolated from seeds of Euphorbia lathyris L. Biosci. Biotechnol. Biochem., 67(3), 631-634, 2003).

tyrosinase [5] = assay: Tyrosinase inhibition, oxidation of L-tyrosine to L-DOPA; assay type: biochemical; conditions: 250 μg/ml
Source text: as §3

3T3 fibroblasts = assay: BSO-induced oxidative death of 3T3 fibroblasts (MTT); assay type: cell-based, BALB/c mouse; conditions: 1 mM; BSO 200 μM, 24 hours

Cc1c(C)c2c(c(C)c1O)CCC(C)(C(=O)O)O2 (stereo not shown) [Trolox]
% ROS in picomoles (A549 cells (ATCC-CCL185); 20 μM): 125 ± 8 %

O=C1c2c(O)cccc2C([C@@H]2O[C@H](CO)[C@@H](O)[C@H](O)[C@H]2O)c2cc(CO)cc(O)c21 (stereo partly shown) [Aloin, reference compound]
Hydroxyl radial (IC50) [1]: 2.9 mg/L
Superoxide radical (IC50) [2]: 7.6 mg/L
Peroxynitrite radical (IC50) [3]: 12.3 mg/L

O=c1cc(CO)occ1O [Kojic acid, reference compound]
Test LDOPA-DOPAquinone inhibitory activity (%) (tyrosinase [4]): 35%
Test L-tyrosine-DOPA inhibitory activity (%) (tyrosinase [5]): 94.1%

Oc1cccc(O)c1 [Resorcinol, reference compound]
Test LDOPA-DOPAquinone inhibitory activity (%) (tyrosinase [4]): 0%
Test L-tyrosine-DOPA inhibitory activity (%) (tyrosinase [5]): 56.9%

O=C1O[C@H]([C@@H](O)CO)C(O)=C1O [Ascorbic acid, reference compound]
% ROS in picomoles (A549 cells (ATCC-CCL185); 1 mM): 130 ± 10 %
% survived cells (3T3 fibroblasts): 72.3%
